Data on two compounds can be found in ChEMBL document CHEMBL3046644, “Biological activity of tropolone” (Biol Pharm Bull, 2003).

The mortality is the share of the test organisms that died. What is called IC50 is the concentration at which inhibition is half-maximal. Low readings indicate inhibition by little substance, high ones a need for much substance. By MIC is commonly meant the lowest concentration that inhibits growth of the organism.

≈ marks a conversion by molar mass, not a printed value.

In experiment [1] the test system is Coptotermes formosanus. Briefly: Insecticidal activity against Coptotermes formosanus assessed as mortality at 0.050 g/m'2 after 24 hr. The format is functional.
In experiment [2] the test system is Coptotermes formosanus. Briefly: Insecticidal activity against Coptotermes formosanus assessed as mortality at 0.200 g/m'2 after 48 hr. The class given is functional.
The test system of experiment [3] is Coptotermes formosanus. Briefly: Insecticidal activity against Coptotermes formosanus assessed as mortality. The class given is functional.
Experiment [4] concerns Tyrophagus putrescentiae. Briefly: Insecticidal activity against Tyrophagus putrescentiae assessed as mortality after 24 hr by clip method. The class given is functional.
The test system of experiment [5] is Dermatophagoides farinae. Briefly: Insecticidal activity against Dermatophagoides farinae assessed as mortality after 24 hr by clip method. The class given is functional.
The target of another experiment is T1, Collagenase ColG (Clostridium histolyticum, UniProt Q9X721).
T1 sequence (Q9X721 whole entry): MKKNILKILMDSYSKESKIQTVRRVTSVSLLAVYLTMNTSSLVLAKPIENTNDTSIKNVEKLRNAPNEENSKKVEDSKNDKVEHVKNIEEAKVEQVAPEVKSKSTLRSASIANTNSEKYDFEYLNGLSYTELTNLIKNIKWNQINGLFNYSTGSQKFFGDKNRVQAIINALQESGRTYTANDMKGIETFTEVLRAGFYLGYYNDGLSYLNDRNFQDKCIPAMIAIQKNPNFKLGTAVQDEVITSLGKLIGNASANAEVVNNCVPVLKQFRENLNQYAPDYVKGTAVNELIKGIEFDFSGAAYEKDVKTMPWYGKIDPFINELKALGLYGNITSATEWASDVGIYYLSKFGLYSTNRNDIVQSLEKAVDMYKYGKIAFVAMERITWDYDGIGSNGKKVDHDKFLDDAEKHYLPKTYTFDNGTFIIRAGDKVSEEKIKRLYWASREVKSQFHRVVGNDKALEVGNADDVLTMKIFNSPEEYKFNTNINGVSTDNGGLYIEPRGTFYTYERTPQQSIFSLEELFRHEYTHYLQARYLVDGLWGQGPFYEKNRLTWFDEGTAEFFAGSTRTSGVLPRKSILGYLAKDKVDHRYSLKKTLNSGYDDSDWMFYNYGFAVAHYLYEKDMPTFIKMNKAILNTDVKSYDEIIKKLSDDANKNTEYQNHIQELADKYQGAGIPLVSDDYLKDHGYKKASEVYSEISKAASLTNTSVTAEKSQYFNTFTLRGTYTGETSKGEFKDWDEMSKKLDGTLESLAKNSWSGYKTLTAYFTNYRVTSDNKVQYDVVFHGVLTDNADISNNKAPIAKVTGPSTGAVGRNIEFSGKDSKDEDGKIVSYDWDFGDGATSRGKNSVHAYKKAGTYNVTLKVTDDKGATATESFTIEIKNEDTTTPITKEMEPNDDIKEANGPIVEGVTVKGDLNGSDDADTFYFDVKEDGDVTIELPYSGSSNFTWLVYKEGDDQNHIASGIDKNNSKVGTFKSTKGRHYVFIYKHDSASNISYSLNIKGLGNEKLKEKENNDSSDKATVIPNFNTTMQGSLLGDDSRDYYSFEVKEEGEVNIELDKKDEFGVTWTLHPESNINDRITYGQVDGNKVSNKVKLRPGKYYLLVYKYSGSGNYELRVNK
Briefly: Inhibition of Clostridium histolyticum collagenase after 15 min. The arrangement: species or system Hathewaya histolytica.

The test system of experiment [6] is Tyrophagus putrescentiae. Briefly: Insecticidal activity against Tyrophagus putrescentiae assessed as mortality at 0.20 g/m'2 after 24 hr by clip method. The class given is functional.
Experiment [7] deals with Dermatophagoides farinae. Briefly: Insecticidal activity against Dermatophagoides farinae assessed as mortality at 0.20 g/m'2 after 24 hr by clip method. The class given is functional.
A further experiment addresses T2, Carboxypeptidase A1 (Bos taurus, UniProt P00730).
T2 sequence (P00730 whole entry): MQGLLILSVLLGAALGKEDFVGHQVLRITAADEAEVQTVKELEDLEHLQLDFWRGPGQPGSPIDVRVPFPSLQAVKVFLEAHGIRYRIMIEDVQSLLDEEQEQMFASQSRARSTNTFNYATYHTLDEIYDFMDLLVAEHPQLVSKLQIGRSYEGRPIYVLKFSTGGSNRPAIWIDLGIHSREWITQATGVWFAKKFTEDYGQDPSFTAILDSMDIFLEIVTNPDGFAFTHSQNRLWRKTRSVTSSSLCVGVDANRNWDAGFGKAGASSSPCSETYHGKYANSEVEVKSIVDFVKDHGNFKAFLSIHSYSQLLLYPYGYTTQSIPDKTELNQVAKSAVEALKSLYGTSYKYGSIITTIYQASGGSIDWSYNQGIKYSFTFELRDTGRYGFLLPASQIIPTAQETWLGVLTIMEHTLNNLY
Briefly: Inhibition of Bos taurus (bovine) pancrease carboxypeptidase A after 15 min.

A further experiment has as its system Pythium aphanidermatum. Briefly: Antifungal activity against Pythium aphanidermatum IFO 32440 after 15 days by agar dilution method. The format is functional. As to conditions: IFO 32440, 360 h.
Experiment [8] deals with Dermatophagoides farinae. Briefly: Insecticidal activity against Dermatophagoides farinae assessed as mortality at 0.40 g/m'2 after 24 hr by clip method. The class given is functional.
For another experiment, the system named is Fusarium solani. Briefly: Antifungal activity against Fusarium solani IFO 9955 after 15 days by agar dilution method. The format is functional. The conditions noted are these: IFO 9955, 360 h.
The test system of experiment [9] is Dermatophagoides farinae. Briefly: Insecticidal activity against Dermatophagoides farinae assessed as mortality at 0.10 g/m'2 after 24 hr by clip method. The format is functional.
A further experiment concerns Thanatephorus cucumeris. Briefly: Antifungal activity against Thanatephorus cucumeris IFO 30445 after 15 days by agar dilution method. The format is functional. The conditions noted are these: IFO 30445, 360 h.
In experiment [10] the test system is Colletotrichum orbiculare. Briefly: Antifungal activity against Colletotrichum orbiculare MAFF 306518 after 15 days by agar dilution method. The format is functional. As to conditions: MAFF 306518, 360 h.
The subject of experiment [11] is Coptotermes formosanus. Briefly: Insecticidal activity against Coptotermes formosanus assessed as mortality at 0.100 g/m'2 after 48 hr. The class given is functional.
The next experiment deals with Botrytis cinerea. Briefly: Antifungal activity against Botryotinia fuckeliana IFO 30915 after 15 days by agar dilution method. The format is functional. As to conditions: IFO 30915, 360 h.
The subject of experiment [12] is Coptotermes formosanus. Briefly: Insecticidal activity against Coptotermes formosanus assessed as mortality at 0.100 g/m'2 after 24 hr. The format is functional.
The subject of experiment [13] is Coptotermes formosanus. Briefly: Insecticidal activity against Coptotermes formosanus assessed as mortality at 0.200 g/m'2 after 24 hr. The class given is functional.
Experiment [14] deals with Coptotermes formosanus. Briefly: Insecticidal activity against Coptotermes formosanus assessed as mortality at 0.050 g/m'2 after 48 hr. The class given is functional.

Regarding `CC(C)c1cccc(=O)c(O)c1` [HINOKITIOL], the mortality in the experiment on Coptotermes formosanus [1] is 40%; in the experiment on Coptotermes formosanus [2], 100%; in the experiment on Tyrophagus putrescentiae [6], 33.6%; in the experiment on Dermatophagoides farinae [7], 96.3%; with Dermatophagoides farinae [8], 100%; in the experiment on Dermatophagoides farinae [9] it was 45.2%. In addition, the mortality in the experiment with Coptotermes formosanus [11] is on record as 100%; in the experiment on Coptotermes formosanus [12] it was 50%; in the experiment on Coptotermes formosanus [13] it was 100%; with Coptotermes formosanus [14], 50%. For the same compound, the results for the LC50 in the experiment on Coptotermes formosanus [3], with Tyrophagus putrescentiae [4] and in the experiment with Dermatophagoides farinae [5] were 0.08 g/m2, 0.24 g/m2 and 0.37 g/m2, respectively. In addition, the concentration for half-maximal inhibition (IC50) stood at 24 µM on Collagenase ColG and 2.76 µM against Carboxypeptidase A1. Moreover, the MIC was determined as 12 mg/L (≈ 73.1 µM) with Pythium aphanidermatum; 50 mg/L (≈ 304 µM) against Fusarium solani; 12 mg/L (≈ 73.1 µM) in the experiment on Thanatephorus cucumeris; 25 mg/L (≈ 152 µM) in experiment [10]; 50 mg/L (≈ 304 µM) with Botrytis cinerea.

For `O=c1cccccc1O` [TROPOLONE], the mortality in the experiment on Coptotermes formosanus [1] is 45%; in the experiment on Coptotermes formosanus [2], 100%; with Tyrophagus putrescentiae [6] it was 9.6%; in the experiment on Dermatophagoides farinae [7], 95.7%; in the experiment with Dermatophagoides farinae [8], 100%; in the experiment with Dermatophagoides farinae [9] it was 24.5%. For the same compound, the mortality in the experiment on Coptotermes formosanus [11] was determined as 89.5%; in the experiment with Coptotermes formosanus [12], 78.9%; in the experiment with Coptotermes formosanus [13] it was 100%; in the experiment with Coptotermes formosanus [14], 77.8%. The LC50 with Coptotermes formosanus [3] is 0.04 g/m2; with Tyrophagus putrescentiae [4] it was 0.11 g/m2; with Dermatophagoides farinae [5], 0.08 g/m2. Also, the 50% inhibitory concentration (IC50) against Collagenase ColG was determined as 46.8 µM; against Carboxypeptidase A1, 2.73 µM. For the same compound, the MIC with Pythium aphanidermatum was 6 mg/L (≈ 49.1 µM); with Fusarium solani, 25 mg/L (≈ 205 µM); in the experiment on Thanatephorus cucumeris, 12 mg/L (≈ 98.3 µM); in experiment [10], 12 mg/L (≈ 98.3 µM); with Botrytis cinerea it was 25 mg/L (≈ 205 µM).
